Results on 28 compounds are retold here after US20030171377A1, “Antidiabetic agents” (priority 2001, published 2003).

Experiment [1] deals with 3T3-L1 preadipocytes. Put plainly: 3T3-L1 Adipocyte Differentiation Assay (ADPDIFF), Test A. It is filed as cell-based. As to conditions: BODIPY lipid fluorescence, reported as % of BRL 49653 at 5 μM. As for the experimental part:
Cells are replenished with FBS containing media on day 5 of post-drug treatment and incubated for additional 4-6 days. Cells are stained with BODIPY a fluorescent lipophilic stain to quantitate the lipid content of the cells. The assay is optimized for a 96-well plate format. Approximately after 10 days of post-drug treatment, cells are fixed in 3% formalin solution for 15 min followed by staining with BODIPY (80 μg/ml) for 20 min at room temperature. The plate is then put through the CYTOFLUOR instrument to measure the fluorescence of BODIPY (excitation=485/20; emission=530/25).

Experiment [2] has as its system endogenous nuclear receptors in CV-1 cells. Nature of the experiment: CV-1 Native Receptors Transcription Assay (MKNRCV1), Test C. It is filed as cell-based, African green monkey. As to conditions: for MKNRCV1 % BRL @ 25 μM: percent activity of BRL 49653; for EC50: Chlorocebus sabaeus, CV-1 cells, 48 hours, unit inferred.
For experiment [3], the system named is CV-1 cells (FATP promoter luciferase reporter, 300 nM BRL). Nature of the experiment: ANTCV1 Antagonist Transcription Assay, Test B. It is filed as cell-based, African green monkey. As to conditions: Chlorocebus sabaeus, 25 μM test compound with 300 nM BRL, 48 hrs, % BRL inhibition, read-out: ANTCV1 INHIB @ 25 μM.
Experiment [4] in a line: Blood Glucose Measurement (Glucose Δ), Test D. It is filed as in vivo, mice. More on the design: key to Glucose Δ: change in blood glucose, mg/dL. The conditions noted are these: for Glucose Δ: 4 hours post dose, 4 hour fasted animals, tail vein whole blood; for % BRL (in vivo, beside Glucose Δ): glucose change relative to BRL. As for the experimental part: Test D—Blood Glucose Measurement (Glucose Δ) Glucose is obtained 4 hours post dose via tail vein stick (5 μl whole blood) in awake, 4 hour fasted animals. Blood is drawn by capillary action into a glucose cuvette and read in a HemoCue Glucose Analyzer (Ryan Diagnostics). Blood is diluted 1:2 with saline if glucose levels are greater than 400 mg/dl (meter high range) and results multiplied by two.

Consider `Cc1oc(-c2ccccc2)nc1CCOc1ccc(CC(C)(C(=O)O)n2cccc2)cc1` (stereo not shown), for which the “ADPDIFF % BRL @ 5 μM” value in experiment [1] came out at 117 % BRL. Further, in experiment [2], the “MKNRCV1 % BRL @ 25 μM” value was 87 % BRL and the concentration for a half-maximal effect (EC50) – broadly, the concentration that produces a half-maximal response – is 2 µM. In experiment [3], the inhibition at 25 µM is -80.3%.
With `Cc1oc(-c2ccccc2)nc1CCOc1ccc(CC(C(=O)O)n2cccc2C(=O)c2ccccc2)cc1` (stereo not shown), in experiment [1], the “ADPDIFF % BRL @ 5 μM” value is given as 33 % BRL. In addition, in experiment [4], the “Glucose Δ” value was determined as 108.6 and the “% BRL (in vivo, beside Glucose Δ)” value is −50.3 % BRL. Also, in experiment [2], the “MKNRCV1 % BRL @ 25 μM” value came to 46 % BRL and the midpoint of the response, the EC50, lay at 12.9 µM.
Regarding `Cc1oc(-c2ccccc2)nc1CCOc1ccc(C[C@@H](C(=O)O)n2ccc(Br)c2)cc1`, in experiment [1], the “ADPDIFF % BRL @ 5 μM” value was 84 % BRL. Moreover, in experiment [2], the “MKNRCV1 % BRL @ 25 μM” value was found to be 85 % BRL and a half-maximal effect (EC50) was put at 0.06 µM. In experiment [3], the inhibition at 25 µM is -57.5%.
With `Cc1oc(-c2ccccc2)nc1CCOc1ccc(CC(C(=O)O)n2cccc2)cc1` (stereo not shown), the “ADPDIFF % BRL @ 5 μM” value in experiment [1] worked out at 67 % BRL. Moreover, in experiment [4], the “Glucose Δ” value is −196.0 and the “% BRL (in vivo, beside Glucose Δ)” value was found to be 109.4 % BRL. In addition, the “MKNRCV1 % BRL @ 25 μM” value in experiment [2] turned out to be 86 % BRL.
For `Cc1oc(-c2ccccc2)nc1CCOc1ccc(CC(C(=O)O)n2ccc(-c3ccccc3)c2)cc1` (stereo not shown), the “ADPDIFF % BRL @ 5 μM” value in experiment [1] is given as 125 % BRL. In addition, in experiment [2], the “MKNRCV1 % BRL @ 25 μM” value amounted to 54 % BRL and the 50% effective concentration (EC50) was found to be 0.9 µM. In addition, the inhibition at 25 µM in experiment [3] came to 29%.
Consider `Cc1oc(-c2ccccc2)nc1CCOc1ccc(CC(C(=O)O)n2ccc(C(=O)C3CCCCC3)c2)cc1` (stereo not shown), for which, in experiment [1], the “ADPDIFF % BRL @ 5 μM” value turned out to be 82 % BRL. For the same compound, in experiment [2], the “MKNRCV1 % BRL @ 25 μM” value was found to be 83 % BRL and the half-maximal effective concentration (EC50) came out at 4.7 µM. For the same compound, the inhibition at 25 µM in experiment [3] is -12%.
The matching figures for `Cc1oc(-c2ccccc2)nc1CCOc1ccc(CC(C(=O)O)n2ccc(C(=O)C(C)C)c2)cc1` (stereo not shown): 120 % BRL, 70 % BRL, 23.6 µM and -10%.
With `Cc1oc(-c2ccccc2)nc1CCOc1ccc(C[C@@H](C(=O)O)n2c(C)ccc2-c2ccccc2)cc1`, the “ADPDIFF % BRL @ 5 μM” value in experiment [1] came to 2 % BRL. For the same compound, the “MKNRCV1 % BRL @ 25 μM” value in experiment [2] worked out at 24 % BRL. In experiment [3], the inhibition at 25 µM was -3%.
For the compound `Cc1oc(-c2ccccc2)nc1CCOc1ccc(C[C@@H](C(=O)O)n2c(C)ccc2C)cc1`, the “ADPDIFF % BRL @ 5 μM” value in experiment [1] was 26 % BRL. For the same compound, in experiment [2], the “MKNRCV1 % BRL @ 25 μM” value was 11 % BRL. Besides, the inhibition at 25 µM in experiment [3] came to 80%.
For the compound `CC(=O)c1c(C(C)=O)c(C)n([C@@H](Cc2ccc(OCCc3nc(-c4ccccc4)oc3C)cc2)C(=O)O)c1C`, in experiment [1], the “ADPDIFF % BRL @ 5 μM” value was 0 % BRL. For the same compound, in experiment [2], the “MKNRCV1 % BRL @ 25 μM” value was determined as 24 % BRL. Also, the inhibition at 25 µM in experiment [3] is 3%.
For `Cc1oc(-c2ccccc2)nc1CCOc1ccc(C[C@@H](C(=O)O)n2c(C)cc(C(=O)C(F)(F)F)c2C)cc1`, in experiment [1], the “ADPDIFF % BRL @ 5 μM” value is on record as 2 % BRL. Moreover, in experiment [2], the “MKNRCV1 % BRL @ 25 μM” value is recorded as 28 % BRL and the concentration giving a half-maximal response (EC50) was determined as 16 µM. Also, the inhibition at 25 µM in experiment [3] is 12%.
In the case of `CC(=O)c1cc(C)n([C@@H](Cc2ccc(OCCc3oc(-c4ccccc4)nc3C)cc2)C(=O)O)c1C`, the “ADPDIFF % BRL @ 5 μM” value in experiment [1] stood at 0 % BRL. Further, the “MKNRCV1 % BRL @ 25 μM” value in experiment [2] is 27 % BRL. The inhibition at 25 µM in experiment [3] is -15%.
Regarding `Cc1oc(-c2ccccc2)nc1CCOc1ccc(C[C@@H](C(=O)O)n2c(C)cc(Cl)c2C)cc1`, the “ADPDIFF % BRL @ 5 μM” value in experiment [1] is 28 % BRL. Also, the “MKNRCV1 % BRL @ 25 μM” value in experiment [2] was 55 % BRL. In experiment [3], the inhibition at 25 µM was found to be 5%.
As to `Cc1oc(-c2ccccc2)nc1CCOc1ccc(C[C@H](C(=O)O)c2ccccc2)cc1`, the “ADPDIFF % BRL @ 5 μM” value in experiment [1] was found to be 31 % BRL. The “MKNRCV1 % BRL @ 25 μM” value in experiment [2] is 50 % BRL. For the same compound, the inhibition at 25 µM in experiment [3] is -44%.
For the compound `Cc1oc(-c2ccccc2)nc1CCOc1ccc(CC(C(=O)O)c2cccs2)cc1` (stereo not shown), the “ADPDIFF % BRL @ 5 μM” value in experiment [1] is given as 88 % BRL. Also, the “MKNRCV1 % BRL @ 25 μM” value in experiment [2] was 111 % BRL. In addition, the inhibition at 25 µM in experiment [3] was -127%.
Take `Cc1oc(-c2ccccc2)nc1CCOc1ccc(CC(C(=O)O)N2CCCC2=O)cc1` (stereo not shown): the “ADPDIFF % BRL @ 5 μM” value in experiment [1] came to 0 % BRL. In addition, the “MKNRCV1 % BRL @ 25 μM” value in experiment [2] came to 29 % BRL. Moreover, the inhibition at 25 µM in experiment [3] is -94%.
Taken in the same sequence, the figures for `Cc1oc(-c2ccccc2)nc1CCOc1ccc(CC(C(=O)O)c2ccncc2)cc1` (stereo not shown) were 2 % BRL, 20 % BRL and 55%.
With `Cc1oc(-c2ccccc2)nc1CC#Cc1ccc(C[C@@H](C(=O)O)n2cccc2)cc1`, the “ADPDIFF % BRL @ 5 μM” value in experiment [1] was 100 % BRL. Further, in experiment [4], the “Glucose Δ” value is given as 62.0 and the “% BRL (in vivo, beside Glucose Δ)” value is −45.3 % BRL. Also, the “MKNRCV1 % BRL @ 25 μM” value in experiment [2] was 94 % BRL.
As for `Cc1oc(-c2ccccc2)nc1CCCc1ccc(C[C@@H](C(=O)O)n2cccc2)cc1`, in experiment [1], the “ADPDIFF % BRL @ 5 μM” value is on record as 62 % BRL. Also, in experiment [4], the “Glucose Δ” value is reported as −166.6 and the “% BRL (in vivo, beside Glucose Δ)” value is given as 121.8 % BRL. The “MKNRCV1 % BRL @ 25 μM” value in experiment [2] worked out at 69 % BRL.
For the compound `CN(CCCc1ccc(C[C@@H](C(=O)O)n2cccc2)cc1)c1ccccc1`, the “ADPDIFF % BRL @ 5 μM” value in experiment [1] is reported as 61 % BRL. In experiment [4], the “Glucose Δ” value stood at 63.0 and the “% BRL (in vivo, beside Glucose Δ)” value is −27.0 % BRL. Moreover, the “MKNRCV1 % BRL @ 25 μM” value in experiment [2] is on record as 68 % BRL.
Consider `Cc1oc(-c2ccccc2)nc1CCOc1ccc(CC(F)(C(=O)O)c2ccccc2)cc1` (stereo not shown) [drawing 216], for which the “ADPDIFF % BRL @ 5 μM” value in experiment [1] stood at 122 % BRL. Besides, in experiment [2], the “MKNRCV1 % BRL @ 25 μM” value is recorded as 63 % BRL and the half-maximal effective concentration (EC50) is 9.5 µM. The inhibition at 25 µM in experiment [3] was 37%.
Turning to `Cc1oc(-c2ccccc2)nc1CCOc1ccc(CC(C)(C)C(=O)O)cc1` [drawing 217], the “ADPDIFF % BRL @ 5 μM” value in experiment [1] is on record as 131 % BRL. Moreover, the “MKNRCV1 % BRL @ 25 μM” value in experiment [2] was determined as 34 % BRL. Moreover, the inhibition at 25 µM in experiment [3] came to 59%.
With `Cc1oc(-c2ccccc2)nc1CCOc1ccc(CC(C)(C(=O)O)c2ccccc2)cc1` (stereo not shown) [drawing 218], the “ADPDIFF % BRL @ 5 μM” value in experiment [1] is recorded as 99 % BRL. In addition, in experiment [2], the “MKNRCV1 % BRL @ 25 μM” value is on record as 44 % BRL and a half-maximal effect (EC50) was put at 13 µM. Also, the inhibition at 25 µM in experiment [3] worked out at 65%.
For the compound `CCc1nnc(C(Cc2ccc(OCCc3nc(-c4ccccc4)oc3C)cc2)c2ccccc2)o1` (stereo not shown) [drawing 225], in experiment [1], the “ADPDIFF % BRL @ 5 μM” value is given as 161 % BRL. Besides, the “MKNRCV1 % BRL @ 25 μM” value in experiment [2] was 61 % BRL. Also, the inhibition at 25 µM in experiment [3] came out at 47%.
Consider `Cc1sc(-c2ccccc2)nc1CCOc1ccc(C[C@@H](C(=O)O)n2cccc2)cc1` [drawing 269], for which the “ADPDIFF % BRL @ 5 μM” value in experiment [1] is recorded as 92 % BRL. Moreover, in experiment [2], the “MKNRCV1 % BRL @ 25 μM” value turned out to be 76 % BRL and the EC50 was determined as 9.2 µM. Besides, in experiment [3], the inhibition at 25 µM was -20%.
For `O=C(O)[C@H](Cc1ccc(C#CCN2CCC(c3ccccc3)CC2)cc1)n1cccc1` [drawing 288], the “ADPDIFF % BRL @ 5 μM” value in experiment [1] is reported as 112 % BRL. Further, in experiment [2], the “MKNRCV1 % BRL @ 25 μM” value worked out at 78 % BRL and the EC50 came to 1.3 µM. Further, the inhibition at 25 µM in experiment [3] is -42%.
For the compound `O=C(O)[C@H](Cc1ccc(/C=C/CN2CCC(c3ccccc3)CC2)cc1)n1cccc1` [drawing 292], in experiment [1], the “ADPDIFF % BRL @ 5 μM” value was 183 % BRL. In addition, the “MKNRCV1 % BRL @ 25 μM” value in experiment [2] is given as 40 % BRL. Besides, the inhibition at 25 µM in experiment [3] came out at 44%.
On to `O=C(O)[C@H](Cc1ccc(CCCN2CCC(c3ccccc3)CC2)cc1)n1cccc1` [drawing 293], for which the “ADPDIFF % BRL @ 5 μM” value in experiment [1] stood at 38 % BRL. In addition, the “MKNRCV1 % BRL @ 25 μM” value in experiment [2] is 22 % BRL. Further, the inhibition at 25 µM in experiment [3] was 50%.
